According to PubChem BioAssay (NCI):
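These data come from cells grown in 96-well plates and exposed to compound for 48 hours at five concentrations. Definition used: TGI = concentration required for complete inhibition of growth.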

Columns and labels:
Assay in all cases: NCI tumour cell line growth inhibition, 48 h
EKVX NSCLC = tested on: EKVX NSCLC
HL-60(TB) leukemia = tested on: HL-60(TB) leukemia
HCC-2998 colon = tested on: HCC-2998 colon
SK-MEL-2 melanoma = tested on: SK-MEL-2 melanoma
HT29 colon = tested on: HT29 colon
MCF7 breast = tested on: MCF7 breast
MDA-MB-231 breast = tested on: MDA-MB-231 breast
IGROV1 ovarian = tested on: IGROV1 ovarian
SK-MEL-5 melanoma = tested on: SK-MEL-5 melanoma
SW-620 colon = tested on: SW-620 colon
BT-549 breast = tested on: BT-549 breast
SF-539 CNS = tested on: SF-539 CNS
COLO 205 colon = tested on: COLO 205 colon
SN12C renal = tested on: SN12C renal
HCT-116 colon = tested on: HCT-116 colon
KM12 colon = tested on: KM12 colon
OVCAR-5 ovarian = tested on: OVCAR-5 ovarian
SNB-75 CNS = tested on: SNB-75 CNS
ACHN renal = tested on: ACHN renal
RPMI-8226 leukemia = tested on: RPMI-8226 leukemia
T-47D breast = tested on: T-47D breast
LOX IMVI melanoma = tested on: LOX IMVI melanoma
SR leukemia = tested on: SR leukemia
SK-OV-3 ovarian = tested on: SK-OV-3 ovarian
A549 NSCLC = tested on: A549 NSCLC
NCI-H522 lung = tested on: NCI-H522 lung
SF-268 CNS = tested on: SF-268 CNS
MALME-3M melanoma = tested on: MALME-3M melanoma
HCT-15 colon = tested on: HCT-15 colon
OVCAR-8 ovarian = tested on: OVCAR-8 ovarian
A498 renal = tested on: A498 renal
NCI/ADR-RES ovarian = tested on: NCI/ADR-RES ovarian
NCI-H460 lung = tested on: NCI-H460 lung
SNB-19 CNS = tested on: SNB-19 CNS
PC-3 prostate = tested on: PC-3 prostate
MDA-N = tested on: MDA-N
UO-31 renal = tested on: UO-31 renal
TK-10 renal = tested on: TK-10 renal
RXF 393 renal = tested on: RXF 393 renal
NCI-H23 lung = tested on: NCI-H23 lung
M14 melanoma = tested on: M14 melanoma
CAKI-1 renal = tested on: CAKI-1 renal
UACC-62 melanoma = tested on: UACC-62 melanoma
OVCAR-3 ovarian = tested on: OVCAR-3 ovarian
MOLT-4 leukemia = tested on: MOLT-4 leukemia
786-0 renal = tested on: 786-0 renal
SK-MEL-28 melanoma = tested on: SK-MEL-28 melanoma
SF-295 CNS = tested on: SF-295 CNS
UACC-257 melanoma = tested on: UACC-257 melanoma
HOP-62 NSCLC = tested on: HOP-62 NSCLC
HOP-92 NSCLC = tested on: HOP-92 NSCLC
OVCAR-4 ovarian = tested on: OVCAR-4 ovarian
K-562 leukemia = tested on: K-562 leukemia
HS 578T breast = tested on: HS 578T breast
MDA-MB-435 = tested on: MDA-MB-435
DU-145 prostate = tested on: DU-145 prostate
NCI-H226 lung = tested on: NCI-H226 lung
U251 CNS = tested on: U251 CNS
CCRF-CEM leukemia = tested on: CCRF-CEM leukemia

C[N+](C)(C)CCCCCc1c2nc(c(CCCCC[N+](C)(C)C)c3ccc([nH]3)c(CCCCC[N+](C)(C)C)c3ccc([nH]3)c(CCCCC[N+](C)(C)C)c3nc1C=C3)C=C2
TGI (EKVX NSCLC): > 100 µM | TGI (HL-60(TB) leukemia): > 100 µM | TGI (HCC-2998 colon): > 100 µM | TGI (SK-MEL-2 melanoma): > 100 µM | TGI (HT29 colon): > 100 µM | TGI (MCF7 breast): > 100 µM | TGI (MDA-MB-231 breast): > 100 µM | TGI (IGROV1 ovarian): > 100 µM | TGI (SK-MEL-5 melanoma): > 100 µM | TGI (SW-620 colon): > 100 µM | TGI (BT-549 breast): > 100 µM | TGI (SF-539 CNS): > 100 µM | TGI (COLO 205 colon): > 100 µM | TGI (SN12C renal): > 100 µM | TGI (HCT-116 colon): > 100 µM | TGI (KM12 colon): > 100 µM | TGI (OVCAR-5 ovarian): > 100 µM | TGI (SNB-75 CNS): > 100 µM | TGI (ACHN renal): > 100 µM | TGI (RPMI-8226 leukemia): > 100 µM | TGI (T-47D breast): > 100 µM | TGI (LOX IMVI melanoma): > 100 µM | TGI (SR leukemia): > 100 µM | TGI (SK-OV-3 ovarian): > 100 µM | TGI (A549 NSCLC): > 100 µM | TGI (NCI-H522 lung): > 100 µM | TGI (SF-268 CNS): > 100 µM | TGI (MALME-3M melanoma): > 100 µM | TGI (HCT-15 colon): > 100 µM | TGI (OVCAR-8 ovarian): > 100 µM | TGI (A498 renal): > 100 µM | TGI (NCI/ADR-RES ovarian): > 100 µM | TGI (NCI-H460 lung): > 100 µM | TGI (SNB-19 CNS): > 100 µM | TGI (PC-3 prostate): > 100 µM | TGI (MDA-N): > 100 µM | TGI (UO-31 renal): > 100 µM | TGI (TK-10 renal): > 100 µM | TGI (RXF 393 renal): 7.32 µM | TGI (NCI-H23 lung): > 100 µM | TGI (M14 melanoma): > 100 µM | TGI (CAKI-1 renal): > 100 µM | TGI (UACC-62 melanoma): > 100 µM | TGI (OVCAR-3 ovarian): > 100 µM | TGI (MOLT-4 leukemia): > 100 µM | TGI (786-0 renal): > 100 µM | TGI (SK-MEL-28 melanoma): > 100 µM | TGI (SF-295 CNS): > 100 µM | TGI (UACC-257 melanoma): > 100 µM | TGI (HOP-62 NSCLC): > 100 µM | TGI (HOP-92 NSCLC): > 100 µM | TGI (OVCAR-4 ovarian): > 100 µM | TGI (K-562 leukemia): > 100 µM | TGI (HS 578T breast): > 100 µM | TGI (MDA-MB-435): > 100 µM | TGI (DU-145 prostate): > 100 µM | TGI (NCI-H226 lung): > 100 µM | TGI (U251 CNS): > 100 µM | TGI (CCRF-CEM leukemia): > 100 µM

c1ccc(COc2nc3ccc(C45CC6CC(CC(C6)C4)C5)cc3[nH]2)cc1
TGI (EKVX NSCLC): > 100 µM | TGI (HL-60(TB) leukemia): 43.7 µM | TGI (HCC-2998 colon): 56.4 µM | TGI (SK-MEL-2 melanoma): 52.6 µM | TGI (HT29 colon): > 100 µM | TGI (MCF7 breast): > 100 µM | TGI (MDA-MB-231 breast): > 80.9 µM | TGI (IGROV1 ovarian): > 100 µM | TGI (SK-MEL-5 melanoma): 14.6 µM | TGI (SW-620 colon): > 100 µM | TGI (BT-549 breast): > 100 µM | TGI (COLO 205 colon): 21.2 µM | TGI (SN12C renal): > 100 µM | TGI (HCT-116 colon): > 83.5 µM | TGI (KM12 colon): > 100 µM | TGI (OVCAR-5 ovarian): > 100 µM | TGI (SNB-75 CNS): > 86.5 µM | TGI (ACHN renal): > 100 µM | TGI (RPMI-8226 leukemia): 30.9 µM | TGI (T-47D breast): 34.1 µM | TGI (LOX IMVI melanoma): 36.5 µM | TGI (SR leukemia): > 100 µM | TGI (SK-OV-3 ovarian): > 100 µM | TGI (A549 NSCLC): > 100 µM | TGI (NCI-H522 lung): 13.9 µM | TGI (SF-268 CNS): > 100 µM | TGI (MALME-3M melanoma): 86.1 µM | TGI (HCT-15 colon): > 29.5 µM | TGI (OVCAR-8 ovarian): > 100 µM | TGI (A498 renal): > 100 µM | TGI (NCI/ADR-RES ovarian): > 54.4 µM | TGI (NCI-H460 lung): > 71.3 µM | TGI (SNB-19 CNS): > 100 µM | TGI (PC-3 prostate): > 100 µM | TGI (MDA-N): 97 µM | TGI (UO-31 renal): > 64.7 µM | TGI (TK-10 renal): > 72.5 µM | TGI (RXF 393 renal): 55.8 µM | TGI (NCI-H23 lung): > 56.6 µM | TGI (M14 melanoma): 98.4 µM | TGI (CAKI-1 renal): > 100 µM | TGI (UACC-62 melanoma): > 100 µM | TGI (OVCAR-3 ovarian): > 100 µM | TGI (MOLT-4 leukemia): > 66.7 µM | TGI (786-0 renal): > 100 µM | TGI (SK-MEL-28 melanoma): > 100 µM | TGI (SF-295 CNS): > 100 µM | TGI (UACC-257 melanoma): > 26.4 µM | TGI (HOP-62 NSCLC): > 74.8 µM | TGI (HOP-92 NSCLC): 49.8 µM | TGI (OVCAR-4 ovarian): > 100 µM | TGI (K-562 leukemia): > 100 µM | TGI (HS 578T breast): > 75.7 µM | TGI (MDA-MB-435): > 94 µM | TGI (DU-145 prostate): > 100 µM | TGI (NCI-H226 lung): 46.2 µM | TGI (U251 CNS): > 78.5 µM | TGI (CCRF-CEM leukemia): > 100 µM
